The record followed here is publication PMC9265050, “Inhibition of RNA Binding in SND1 Increases the Levels of miR-1-3p and Sensitizes Cancer Cells to Navitoclax” (Cancers, 2022).

In one data set the target is T1, SN3-SN4-TSN (340-888) (Homo sapiens, UniProt Q7KZF4).
T1 construct: gene SND1; SN3-SN4-TSN domain fragment, residues 340-888; N-terminal GST tag cut with TEV protease; E. coli Rosetta 2 (DE3)
T1 sequence (Q7KZF4 340-888): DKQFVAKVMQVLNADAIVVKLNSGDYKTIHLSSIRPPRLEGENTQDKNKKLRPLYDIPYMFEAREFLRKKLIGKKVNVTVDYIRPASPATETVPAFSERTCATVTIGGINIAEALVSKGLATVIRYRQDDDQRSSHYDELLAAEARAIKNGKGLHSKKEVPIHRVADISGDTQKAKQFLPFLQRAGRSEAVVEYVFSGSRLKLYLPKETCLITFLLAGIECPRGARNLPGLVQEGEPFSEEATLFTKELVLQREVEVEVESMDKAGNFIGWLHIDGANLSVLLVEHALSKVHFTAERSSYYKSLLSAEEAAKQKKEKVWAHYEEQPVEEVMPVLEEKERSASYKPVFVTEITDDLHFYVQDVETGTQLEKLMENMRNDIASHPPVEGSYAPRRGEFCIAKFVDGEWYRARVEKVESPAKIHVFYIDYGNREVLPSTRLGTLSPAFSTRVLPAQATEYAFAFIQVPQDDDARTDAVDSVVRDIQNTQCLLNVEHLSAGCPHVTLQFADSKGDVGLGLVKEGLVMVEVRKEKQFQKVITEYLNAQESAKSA
Put plainly: isothermal titration calorimetry, one-site model. The data set is classed as binding. From the text: isothermal titration calorimetry, one-site model on SN3-SN4-TSN (340-888)
(Isothermal titration calorimetry measures the heat released or taken up as one component is titrated into another.)

In the next data set the target is T2, SN1-SN2 (16-339) (Homo sapiens, UniProt Q7KZF4).
T2 construct: gene SND1; SN1-SN2 domain fragment, residues 16-339; N-terminal GST tag cut with TEV protease; E. coli Rosetta 2 (DE3)
T2 sequence (Q7KZF4 16-339): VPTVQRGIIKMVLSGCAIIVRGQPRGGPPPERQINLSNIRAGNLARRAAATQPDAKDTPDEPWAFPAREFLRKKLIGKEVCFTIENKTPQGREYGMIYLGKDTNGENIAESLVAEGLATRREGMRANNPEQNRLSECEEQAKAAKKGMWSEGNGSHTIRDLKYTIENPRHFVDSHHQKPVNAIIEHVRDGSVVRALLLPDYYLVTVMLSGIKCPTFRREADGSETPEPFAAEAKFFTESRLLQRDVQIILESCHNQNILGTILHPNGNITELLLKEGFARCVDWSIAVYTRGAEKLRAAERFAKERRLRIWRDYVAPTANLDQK
The data set is described as follows: isothermal titration calorimetry, one-site model. The format is binding. From the text:
isothermal titration calorimetry, one-site model on SN1-SN2 (16-339)

The next data set concerns the target SND1 full-length (UniProt Q7KZF4 1-910). The data set is described as follows: fluorescence polarization; high affinity, Kd only in figure; inhibited by suramin, not by navitoclax; FP: 20 mM HEPES pH 7.5, 100 mM NaCl, 3 nM labelled RNA, 25 C; EMSA: same buffer with 5 mM EGTA or 5 mM CaCl2, room temperature 1 or 4 h, 20% PAGE 1xTBE 4 C. The note with it: protein: recombinant; tags: GST tag removed by TEV; label: 5' 6-FAM; single strand.

Chain of SND1 full-length (Q7KZF4 whole entry): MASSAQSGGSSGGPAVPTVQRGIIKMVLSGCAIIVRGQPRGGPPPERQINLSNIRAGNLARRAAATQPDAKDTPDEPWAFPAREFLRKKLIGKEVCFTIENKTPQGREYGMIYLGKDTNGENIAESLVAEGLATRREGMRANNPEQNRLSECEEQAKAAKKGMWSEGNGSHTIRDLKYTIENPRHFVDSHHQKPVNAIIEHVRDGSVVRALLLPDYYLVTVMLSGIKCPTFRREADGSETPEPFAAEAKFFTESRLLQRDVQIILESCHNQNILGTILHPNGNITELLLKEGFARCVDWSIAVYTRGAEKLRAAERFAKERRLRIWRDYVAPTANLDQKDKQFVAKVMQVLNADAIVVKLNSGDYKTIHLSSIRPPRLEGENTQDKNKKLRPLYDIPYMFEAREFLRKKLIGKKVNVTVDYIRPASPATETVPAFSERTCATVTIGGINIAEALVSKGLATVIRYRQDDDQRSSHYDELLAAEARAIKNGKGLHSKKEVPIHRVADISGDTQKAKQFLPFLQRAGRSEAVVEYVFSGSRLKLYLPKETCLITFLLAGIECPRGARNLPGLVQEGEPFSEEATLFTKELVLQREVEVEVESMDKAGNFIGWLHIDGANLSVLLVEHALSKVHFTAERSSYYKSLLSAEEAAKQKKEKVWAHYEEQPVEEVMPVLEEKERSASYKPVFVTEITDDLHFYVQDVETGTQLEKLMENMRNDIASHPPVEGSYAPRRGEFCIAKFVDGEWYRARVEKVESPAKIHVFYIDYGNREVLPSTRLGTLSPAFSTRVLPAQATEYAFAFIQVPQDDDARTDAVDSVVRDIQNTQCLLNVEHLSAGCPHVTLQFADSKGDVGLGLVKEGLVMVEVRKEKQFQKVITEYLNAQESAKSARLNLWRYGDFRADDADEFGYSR

The term Kd denotes the concentration at which binding is half-saturated. Low values mean a tighter complex, high ones a looser complex. As for `Cc1ccc(C(=O)Nc2ccc(S(=O)(=O)O)c3cc(S(=O)(=O)O)cc(S(=O)(=O)O)c23)cc1NC(=O)c1cccc(NC(=O)Nc2cccc(C(=O)Nc3cc(C(=O)Nc4ccc(S(=O)(=O)O)c5cc(S(=O)(=O)O)cc(S(=O)(=O)O)c45)ccc3C)c2)c1` [Suramin], the equilibrium dissociation constant (Kd) at SN3-SN4-TSN (340-888) is 5.59 µM; on SN1-SN2 (16-339), 12.1 µM.
Turning to UGGAAUGUAAAGAAGUAUGUAU (ssRNA) [miR-1-3p FP tracer], the binding result in the data set with SND1 full-length is reported as “binds”.
